Measured values taken from ChEMBL document CHEMBL1132608, “Structure-activity relationship of diaryl phosphonate esters as potent irreversible dipeptidyl peptidase IV inhibitors” (J Med Chem, 1999).

What was measured:
[1] = target: T1, Prolyl endopeptidase (Homo sapiens) (UniProt P48147); assay: Effect on the activity of prolyl endopeptidase (PEP) is evaluated at 1 mM.
T1 sequence (whole entry): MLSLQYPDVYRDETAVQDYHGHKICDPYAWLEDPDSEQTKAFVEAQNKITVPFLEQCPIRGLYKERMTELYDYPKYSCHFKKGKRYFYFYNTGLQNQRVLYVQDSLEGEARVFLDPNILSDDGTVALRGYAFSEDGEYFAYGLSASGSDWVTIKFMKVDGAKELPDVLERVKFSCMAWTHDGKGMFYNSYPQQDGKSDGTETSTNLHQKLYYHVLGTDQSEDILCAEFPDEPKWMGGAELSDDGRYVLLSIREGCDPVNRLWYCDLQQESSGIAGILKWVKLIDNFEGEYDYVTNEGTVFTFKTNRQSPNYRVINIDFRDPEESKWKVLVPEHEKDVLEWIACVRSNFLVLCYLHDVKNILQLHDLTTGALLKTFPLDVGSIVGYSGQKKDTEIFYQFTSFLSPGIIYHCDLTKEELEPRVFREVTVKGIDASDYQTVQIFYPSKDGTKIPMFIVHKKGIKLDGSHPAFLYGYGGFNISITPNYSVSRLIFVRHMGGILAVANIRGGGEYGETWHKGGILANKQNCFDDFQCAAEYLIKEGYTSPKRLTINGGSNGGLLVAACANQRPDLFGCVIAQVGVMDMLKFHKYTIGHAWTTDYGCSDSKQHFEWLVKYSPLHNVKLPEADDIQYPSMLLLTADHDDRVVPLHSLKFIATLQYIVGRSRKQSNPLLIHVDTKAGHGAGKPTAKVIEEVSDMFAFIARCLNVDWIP

[2] = target: T1, Prolyl endopeptidase (Homo sapiens); assay: Effect on the activity of prolyl endopeptidase (PEP) is evaluated at the IC50 concentration for DPPIV.
Dipeptidyl peptidase 4 = Dipeptidyl peptidase 4 (Homo sapiens, UniProt P27487)
Description: In vitro inhibition of human Dipeptidylpeptidase IV.

[3] = Functional stability in plasma was estimated by fitting the inverse of apparent IC50 values verses time with a single-exponential decay; assay type: ADME, cell-free
[4] = target: Aminopeptidase N (Homo sapiens) (UniProt P15144); assay: Effect on the activity of membrane alanyl aminopeptidase (MAAP) is evaluated at a concentration of 1 mM.
Homo sapiens [5] = species on record: Homo sapiens; assay: Effect on the activity of elastase is evaluated at a concentration of 1 mM.; assay type: functional
Homo sapiens [6] = species on record: Homo sapiens; assay: Effect on the activity of elastase was determined as IC50; assay type: functional
[7] = target: Dipeptidyl peptidase 4 (Mus musculus) (UniProt P28843)
Description: Effect on the activity of Dipeptidylpeptidase II (DPP II) is evaluated at a concentration of 1 mM.

[8] = target: Dipeptidyl peptidase 4 (Mus musculus) (UniProt P28843); remark: listed apart in the source
Description: Effect on the activity of Dipeptidylpeptidase II (DPP II) is evaluated at the IC50 concentration for DPPIV.

[9] = Effect on the activity of membrane alanyl aminopeptidase (MAAP) is evaluated at the IC50 concentration for DPPIV.
Homo sapiens [10] = species on record: Homo sapiens; assay: cells

Chain of Dipeptidyl peptidase 4 (Mus musculus) (P28843 whole entry, looked up): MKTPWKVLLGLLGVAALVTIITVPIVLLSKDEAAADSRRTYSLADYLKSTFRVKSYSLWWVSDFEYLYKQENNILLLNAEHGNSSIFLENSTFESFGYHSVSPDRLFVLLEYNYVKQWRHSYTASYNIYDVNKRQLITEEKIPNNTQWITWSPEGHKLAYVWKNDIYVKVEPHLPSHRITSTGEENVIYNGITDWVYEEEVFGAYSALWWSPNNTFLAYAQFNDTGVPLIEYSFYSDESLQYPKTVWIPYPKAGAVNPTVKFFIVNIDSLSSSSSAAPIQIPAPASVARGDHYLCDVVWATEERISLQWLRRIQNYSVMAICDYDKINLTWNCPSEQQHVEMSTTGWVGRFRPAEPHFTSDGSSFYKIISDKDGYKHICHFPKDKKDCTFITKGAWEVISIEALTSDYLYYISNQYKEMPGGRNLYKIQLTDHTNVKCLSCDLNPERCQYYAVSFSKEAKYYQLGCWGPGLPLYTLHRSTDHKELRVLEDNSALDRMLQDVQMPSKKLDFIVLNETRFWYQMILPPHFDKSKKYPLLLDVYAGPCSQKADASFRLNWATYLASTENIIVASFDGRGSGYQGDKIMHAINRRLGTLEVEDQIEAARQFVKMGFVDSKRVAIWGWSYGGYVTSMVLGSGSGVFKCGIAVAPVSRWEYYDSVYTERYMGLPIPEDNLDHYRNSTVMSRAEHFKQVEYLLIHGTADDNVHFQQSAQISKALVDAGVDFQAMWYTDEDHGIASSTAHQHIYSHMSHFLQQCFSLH
Chain of Dipeptidyl peptidase 4 (P27487 whole entry): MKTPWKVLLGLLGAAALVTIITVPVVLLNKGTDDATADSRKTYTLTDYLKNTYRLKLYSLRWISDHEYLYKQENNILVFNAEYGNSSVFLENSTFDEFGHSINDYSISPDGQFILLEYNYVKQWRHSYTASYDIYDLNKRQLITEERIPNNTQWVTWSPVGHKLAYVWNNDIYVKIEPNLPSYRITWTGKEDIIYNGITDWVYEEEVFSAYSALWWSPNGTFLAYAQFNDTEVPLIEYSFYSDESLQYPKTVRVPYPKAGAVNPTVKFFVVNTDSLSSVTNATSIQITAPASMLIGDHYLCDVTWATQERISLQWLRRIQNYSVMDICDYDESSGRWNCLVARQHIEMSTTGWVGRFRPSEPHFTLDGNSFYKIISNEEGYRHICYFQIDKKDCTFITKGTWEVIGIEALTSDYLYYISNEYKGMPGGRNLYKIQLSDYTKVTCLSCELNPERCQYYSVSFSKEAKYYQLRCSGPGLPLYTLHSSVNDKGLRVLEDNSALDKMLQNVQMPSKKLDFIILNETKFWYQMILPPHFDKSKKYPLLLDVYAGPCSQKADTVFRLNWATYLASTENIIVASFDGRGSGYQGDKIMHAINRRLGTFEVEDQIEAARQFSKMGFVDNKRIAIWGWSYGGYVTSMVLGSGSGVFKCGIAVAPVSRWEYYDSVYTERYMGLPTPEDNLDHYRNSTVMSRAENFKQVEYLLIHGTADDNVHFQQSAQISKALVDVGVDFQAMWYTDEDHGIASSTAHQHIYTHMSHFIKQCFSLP
Chain of Aminopeptidase N (Homo sapiens) (P15144 whole entry): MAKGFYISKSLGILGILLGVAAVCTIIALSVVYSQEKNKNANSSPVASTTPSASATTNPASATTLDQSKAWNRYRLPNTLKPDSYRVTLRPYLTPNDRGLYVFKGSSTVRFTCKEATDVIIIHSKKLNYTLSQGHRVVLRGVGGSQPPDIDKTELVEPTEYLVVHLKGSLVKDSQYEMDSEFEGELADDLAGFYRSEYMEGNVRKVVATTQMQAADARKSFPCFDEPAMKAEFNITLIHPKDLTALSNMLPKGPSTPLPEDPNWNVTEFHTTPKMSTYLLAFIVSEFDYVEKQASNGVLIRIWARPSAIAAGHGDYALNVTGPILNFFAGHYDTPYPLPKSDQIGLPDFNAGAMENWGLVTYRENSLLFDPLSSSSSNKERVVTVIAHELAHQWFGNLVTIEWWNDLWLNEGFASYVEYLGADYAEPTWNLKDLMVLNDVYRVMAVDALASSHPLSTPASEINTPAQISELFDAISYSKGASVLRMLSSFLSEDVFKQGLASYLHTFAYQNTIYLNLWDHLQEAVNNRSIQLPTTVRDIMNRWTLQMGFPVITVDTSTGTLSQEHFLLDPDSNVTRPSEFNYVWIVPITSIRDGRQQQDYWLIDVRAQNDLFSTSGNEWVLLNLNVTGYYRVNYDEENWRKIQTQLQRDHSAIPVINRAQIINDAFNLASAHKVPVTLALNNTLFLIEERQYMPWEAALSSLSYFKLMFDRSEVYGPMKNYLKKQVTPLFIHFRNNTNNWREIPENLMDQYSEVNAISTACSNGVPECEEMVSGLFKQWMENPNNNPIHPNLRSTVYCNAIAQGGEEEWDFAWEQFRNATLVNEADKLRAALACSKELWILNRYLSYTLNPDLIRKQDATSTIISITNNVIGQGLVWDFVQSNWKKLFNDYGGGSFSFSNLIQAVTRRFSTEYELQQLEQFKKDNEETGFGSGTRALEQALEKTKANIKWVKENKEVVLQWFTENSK

Row | SMILES | Specificity [1] | Specificity [2] | IC50 (Dipeptidyl peptidase 4) | half-life [3] | further results
1 | COC(=O)C(Cc1ccc(OP(=O)(Oc2ccc(CC(NC(C)=O)C(=O)OC)cc2)C2CCCN2C(=O)C2CCCN2)cc1)NC(C)=O (stereo not given) | 35 | 102 | – | – | –
2 | Cl.NC(=O)Nc1cccc(OP(=O)(OC2=CC=CC(NC(N)=O)C2)C2CCCN2C(=O)C2CCCN2)c1 (stereo not given) | – | – | 2.3 µM | – | –
3 | Cl.O=C(CNC(=O)c1ccccc1)Nc1ccc(OP(=O)(Oc2ccc(NC(=O)CNC(=O)c3ccccc3)cc2)C2CCCN2C(=O)C2CCCN2)cc1 (stereo not given) | 32 | 92 | – | 93 min | –
4 | Cl.NCC(=O)Nc1ccc(OP(=O)(Oc2ccc(NC(=O)CN)cc2)C2CCCN2C(=O)C2CCCN2)cc1 (stereo not given) | – | – | – | 28 min | –
5 | CS(=O)(=O)Nc1ccc(OP(=O)(Oc2ccc(NS(C)(=O)=O)cc2)C2CCCN2C(=O)C2CCCN2)cc1.Cl (stereo not given) | 4 | 73 | – | 150 min | –
6 | CCCNC(=O)c1ccc(OP(=O)(Oc2ccc(C(=O)NCCC)cc2)C2CCCN2C(=O)C2CCCN2)cc1.Cl (stereo not given) | 5 | 97 | – | 12 min | –
7 | COc1ccc(OP(=O)(Oc2ccc(OC)cc2)C2CCCN2C(=O)C2CCCN2)cc1.Cl (stereo not given) | – | – | 22 µM | 470 min | –
8 | Cl.O=C(C1CCCN1)N1CCCC1P(=O)(Oc1ccc(O)cc1)Oc1ccc(O)cc1 (stereo not given) | – | – | 190 µM | > 200 min | –
9 | C[C@H](N)C(=O)Nc1ccc(OP(=O)(Oc2ccc(NC(=O)[C@@H](C)N)cc2)C2CCCN2C(=O)C2CCCN2)cc1.Cl (stereo not given in full) | 47 | 88 | 0.6 µM | 8 min | –
10 | Cl.O=C(C1CCCN1)N1CCCC1P(=O)(Oc1ccc(NN2CCCC2)cc1)Oc1ccc(NN2CCCC2)cc1 (stereo not given) | – | – | 5 µM | – | –
11 | CCOC(=O)CNC(=O)c1ccc(OP(=O)(Oc2ccc(C(=O)NCC(=O)OCC)cc2)C2CCCN2C(=O)C2CCCN2)cc1.Cl (stereo not given) | 1 | 85 | – | 35 min | Specificity [4]: 94; Specificity (Homo sapiens [5]): 6; IC50 (Homo sapiens [6]): 102 µM; Specificity [7]: 66; Specificity [8]: 78
12 | Cl.O=C([C@H]1CCCN1)N1CCCC1P(=O)(Oc1ccccc1)Oc1ccccc1 (stereo not given in full) | 71 | 107 | – | 300 min | Specificity (Homo sapiens [5]): 82; Specificity [9]: 100; Specificity [7]: 73; Specificity [8]: 102; IC50 (Homo sapiens [10]): 100 µM
13 | O=C(C1CCCN1)N1CCCC1P(=O)(OCC(Cl)(Cl)Cl)OCC(Cl)(Cl)Cl (stereo not given) | – | – | 1800 µM | – | –
14 | O=C(C1CCCN1)N1CCCC1P(=O)(OCC(F)(F)F)OCC(F)(F)F (stereo not given) | – | – | 9100 µM | – | –
15 | Cl.O=C([C@@H]1CCCN1)N1CCCC1P1(=O)Oc2ccccc2-c2ccccc2O1 (stereo not given in full) | – | – | 31 µM | 6 min | –
16 | CC(=O)Nc1ccc(OP(=O)(Oc2ccc(NC(C)=O)cc2)C2CCCN2C(=O)C2CCCN2)cc1.Cl (stereo not given) | 60 | 96 | – | – | Specificity [4]: 96; Specificity (Homo sapiens [5]): 105; Specificity [9]: 99; Specificity [7]: 83; Specificity [8]: 100
17 | COC(=O)CCNC(=O)c1ccc(OP(=O)(Oc2ccc(C(=O)NCCC(=O)OC)cc2)C2CCCN2C(=O)C2CCCN2)cc1.Cl (stereo not given) | 0 | 83 | – | 26 min | –
18 | CC(=O)Nc1cccc(OP(=O)(Oc2cccc(NC(C)=O)c2)C2CCCN2C(=O)C2CCCN2)c1.Cl (stereo not given) | – | – | – | 220 min | –
19 | COC(=O)c1ccc(OP(=O)(Oc2ccc(C(=O)OC)cc2)C2CCCN2C(=O)C2CCCN2)cc1 (stereo not given) | 4 | 73 | – | – | –
